Earlier results, collected in patent US9272011B2, “Pharmaceutical composition for treating urinary incontinence and enuresis” (LABORATEC, S.L., priority 2012, dated 2016).

Test system: enuresis
Conditions: enuresis therapy, literature studies

SMILES: CN(C)CCCN1c2ccccc2CCc2ccccc21 [Imipramine]
- response rate: approximately 50%
